Like-named read-outs stand apart in the source and are kept apart here.
Assays:
[1] = tested on: HDACs (HeLa cell nuclear extracts); experiment: HDAC enzymatic activity, Biomol Color de Lys system; type: biochemical
In short: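 HeLa nuclear extract as HDAC source with Color de Lys substrate in 50 mM Tris/Cl pH 8.0, 137 mM NaCl, 2.7 mM KCl, 1 mM MgCl2. Serially diluted compounds reacted 1 h at 25 °C, then developer added; fluorescence (Ex 350–380/Em 440–460) fitted sigmoidally for IC50.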

[2] = tested on: HCT-118 cells; experiment: Cell proliferation assay Method A (ATPlite), HCT-118; type: cell-based; details: 72 hours, read-out: antiproliferative activity IC50, HCT-118
Experimental: (§1) Cancer cell lines were plated at 5,000 to 10,000 per well in 96-well flat bottomed plates with various concentration of compounds. The cells were incubated with compounds for 72 hours in the presence of 0.5% of fetal bovine serum. Growth inhibition was accessed by adenosine triphosphate (ATP) content assay using Perkin Elmer ATPlite kit. ATPlite is an ATP monitoring system based on firefly luciferase. Briefly, 25 μl of mammalian cell lysis solution was added to 50 μl of phenol red-free culture medium per well to lyse the cells and stabilize the ATP. 25 μl of substrate solution was then added to the well and subsequently the luminescence was measured.

[3] = tested on: BT-474 cells; experiment: Cell proliferation assay Method A (ATPlite), BT-474; type: cell-based; details: Homo sapiens, 72 hours, read-out: antiproliferative activity IC50, BT-474
Experimental: as §1

[4] = tested on: Sk-Mel-28 cells; experiment: Cell proliferation assay Method A (ATPlite), Sk-Mel-28; type: cell-based; details: Homo sapiens, 72 hours, read-out: antiproliferative activity IC50, Sk-Mel-28
Experimental: as §1

[5] = tested on: H1993 cells; experiment: Cell proliferation assay Method A (ATPlite), H1993; type: cell-based; details: Homo sapiens, NCI-H1993, 72 hours, read-out: antiproliferative activity IC50, H1993
Experimental: as §1

[6] = tested on: H1975 cells; experiment: Cell proliferation assay Method B, H1975; type: cell-based; details: Homo sapiens, NCI-H1975, NSCLC, 72 hours, read-out: antiproliferative activity IC50, H1975
Experimental: (§2) Cancer cell lines were plated at 5,000 to 10,000 per well in 96-well flat bottomed plates with various concentration of compounds. The cells were incubated with compounds for 72 hours in the presence of 0.5% of fetal bovine serum. Growth inhibition was accessed by adenosine triphosphate (ATP) content assay using Promega CellTiter-Glo kit. Promega CellTiter-Glo kit is an ATP monitoring system based on firefly luciferase. Briefly, 16 μl of mammalian cell lysis and substrate solution was added to 84 μl of culture medium per well to lyse the cells and stabilize the ATP. The mixture was shaken and incubated for 30 minutes and subsequently the luminescence was measured.

[7] = tested on: H1993 cells; experiment: Cell proliferation assay Method B, H1993; type: cell-based; details: Homo sapiens, NCI-H1993, NSCLC, 72 hours, read-out: antiproliferative activity IC50, H1993
Experimental: as §2

[8] = tested on: BT474 cells; experiment: Cell proliferation assay Method B, BT474; type: cell-based; details: Homo sapiens, BT-474, 72 hours, read-out: antiproliferative activity IC50, BT474
Experimental: as §2

[9] = tested on: MDA-MB-468 cells; experiment: Cell proliferation assay Method B, MDA-MB-468; type: cell-based; details: Homo sapiens, 72 hours, read-out: antiproliferative activity IC50, MDA-MB-468
Experimental: as §2

[10] = tested on: HCC1937 cells; experiment: Cell proliferation assay Method B, HCC1937; type: cell-based; details: Homo sapiens, 72 hours, read-out: antiproliferative activity IC50, HCC1937
Experimental: as §2

[11] = tested on: U87MG cells; experiment: Cell proliferation assay Method B, U87MG; type: cell-based; details: Homo sapiens, U-87 MG, Glioblastoma, 72 hours, read-out: antiproliferative activity IC50, U87MG
Experimental: as §2

[12] = tested on: Sk-Mel-28 cells; experiment: Cell proliferation assay Method B, Sk-Mel-28; type: cell-based; details: Homo sapiens, Melanoma, 72 hours, read-out: antiproliferative activity IC50, Sk-Mel-28
Experimental: as §2

[13] = tested on: MDA-MB-436 cells; experiment: Cell proliferation assay Method B, MDA-MB-436; type: cell-based; details: Homo sapiens, 72 hours, read-out: antiproliferative activity IC50, MDA-MB-436
Experimental: as §2

[14] = tested on: A375 cells; experiment: Cell proliferation assay Method B, A375; type: cell-based; details: Homo sapiens, A-375, Melanoma, 72 hours, read-out: antiproliferative activity IC50, A375
Experimental: as §2

[15] = tested on: Ca127 cells; experiment: Cell proliferation assay Method B, Ca127; type: cell-based; details: HNC; Ca127; 72 hours, 0.5% fetal bovine serum, CellTiter-Glo; read-out: antiproliferative activity IC50, Ca127
Experimental: as §2

[16] = tested on: RPMI-8226 cells; experiment: Cell proliferation assay Method B, RPMI-8226; type: cell-based; details: Homo sapiens, Multiple Myeloma, 72 hours, read-out: antiproliferative activity IC50, RPMI-8226
Experimental: as §2

[17] = tested on: MDA-MB-231 cells; experiment: Cell proliferation assay Method B, MDA-MB-231; type: cell-based; details: Homo sapiens, 72 hours, 0.5% fetal bovine serum, CellTiter-Glo, read-out: antiproliferative activity IC50, MDA-MB-231
Experimental: as §2

[18] = H1975, 0.5% fetal bovine serum, CellTiter-Glo
[19] = H1993, 0.5% fetal bovine serum, CellTiter-Glo
[20] = BT474, 0.5% fetal bovine serum, CellTiter-Glo
[21] = 0.5% fetal bovine serum, CellTiter-Glo
[22] = U87MG, 0.5% fetal bovine serum, CellTiter-Glo
[23] = Sk-Mel-28, 0.5% fetal bovine serum, CellTiter-Glo
[24] = A375, 0.5% fetal bovine serum, CellTiter-Glo

Row | Structure (SMILES) | IC50 [1] | IC50 [2] | IC50 [3] | IC50 [4] | IC50 [5] | IC50 [6, 18] | IC50 [7, 19] | IC50 [8, 20] | IC50 [9, 21] | IC50 [10, 21] | IC50 [11, 22] | IC50 [12, 23] | melting point | IC50 ([6]; Method B) | IC50 ([7]; Method B) | IC50 ([8]; Breast, Method B) | IC50 ([14]; Method B) | IC50 [13, 21] | IC50 [15] | IC50 [14, 24] | also measured
1 | CN(Cc1cc2nc(-c3cccc4[nH]ncc34)nc(N3CCOCC3)c2s1)c1ncc(C(=O)NO)cn1 [Compound 54, 2-(((2-(1H-indazol-4-yl)-4-morpholinothieno[3,2-d]pyrimidin-6-yl)methyl)(methyl)amino)-N-hydroxypyrimidine-5-carboxamide] | < 100 nM | < 100 nM | < 100 nM | < 100 nM | < 100 nM | 10 to 100 nM | 10 to 100 nM | < 10 nM | < 10 nM | 10 to 100 nM | 10 to 100 nM | 10 to 100 nM | 197 to 200 °C | – | – | – | – | – | – | – | –
2 | CN(Cc1cc2nc(-c3cccc(CO)c3)nc(N3CCOCC3)c2s1)c1ncc(C(=O)NO)cn1 [Compound 138, N-hydroxy-2-(((2-(3-(hydroxymethyl)phenyl)-4-morpholinothieno[3,2-d]pyrimidin-6-yl)methyl)(methyl)amino)pyrimidine-5-carboxamide] | < 100 nM | < 100 nM | < 100 nM | < 100 nM | < 100 nM | – | – | – | – | – | – | – | 160 to 164 °C | 10 to 100 nM | 10 to 100 nM | < 10 nM | 10 to 100 nM | – | – | – | IC50 ([9]; Breast, Method B): 10 to 100 nM; IC50 ([10]; Breast, Method B): 10 to 100 nM; IC50 ([13]; Breast, Method B): 10 to 100 nM; IC50 ([11]; Method B): < 10 nM; IC50 ([12]; SK-MEL-28, Method B): 10 to 100 nM
3 | CN(Cc1cc2nc(-c3cnc(N)nc3)nc(N3CCOCC3)c2s1)c1ncc(C(=O)NO)cn1 [Compound 115, 2-(((2-(2-aminopyrimidin-5-yl)-4-morpholinothieno[3,2-d]pyrimidin-6-yl)methyl)(methyl)amino)-N-hydroxypyrimidine-5-carboxamide] | < 100 nM | < 100 nM | < 100 nM | < 100 nM | < 100 nM | 10 to 100 nM | – | 10 to 100 nM | 100 to 1000 nM | 10 to 100 nM | 10 to 100 nM | 10 to 100 nM | 175 to 181 °C | – | – | – | – | 100 to 1000 nM | 10 to 100 nM | 10 to 100 nM | –
4 | CN(Cc1cc2nc(-c3cccc(O)c3)nc(N3CCOCC3)c2s1)c1ncc(C(=O)NO)cn1 [Compound 132, N-hydroxy-2-(((2-(3-hydroxyphenyl)-4-morpholinothieno[3,2-d]pyrimidin-6-yl)methyl)(methyl)amino)pyrimidine-5-carboxamide] | < 100 nM | < 100 nM | < 100 nM | < 100 nM | < 100 nM | 10 to 100 nM | 10 to 100 nM | < 10 nM | 100 to 1000 nM | 100 to 1000 nM | 10 to 100 nM | 10 to 100 nM | 175 to 181 °C | – | – | – | – | 10 to 100 nM | 10 to 100 nM | 10 to 100 nM | IC50 [16, 21]: < 10 nM
5 | CN(Cc1cc2nc(-c3ccc(N)nc3)nc(N3CCOCC3)c2s1)c1ncc(C(=O)NO)cn1 [Compound 110, 2-(((2-(6-Aminopyridin-3-yl)-4-morpholinothieno[3,2-d]pyrimidin-6-yl)methyl)(methyl)amino)-N-hydroxypyrimidine-5-carboxamide] | < 100 nM | < 100 nM | < 100 nM | < 100 nM | < 100 nM | 10 to 100 nM | 10 to 100 nM | < 10 nM | 10 to 100 nM | 10 to 100 nM | < 10 nM | 10 to 100 nM | 175 to 181 °C | – | – | – | – | 10 to 100 nM | 10 to 100 nM | 10 to 100 nM | IC50 [17]: 10 to 100 nM
6 | CN(Cc1cc2nc(-c3cc(O)ccc3F)nc(N3CCOCC3)c2s1)c1ncc(C(=O)NO)cn1 [Compound 292, 2-(((2-(2-Fluoro-5-hydroxyphenyl)-4-morpholinothieno[3,2-d]pyrimidin-6-yl)methyl)(methyl)amino)-N-hydroxypyrimidine-5-carboxamide] | < 100 nM | – | – | – | – | – | – | – | – | – | – | – | 250 to 255 °C | – | – | – | < 10 nM | – | – | – | –
7 | CC(=O)Nc1ccc(-c2nc(N3CCOCC3)c3sc(CN(C)c4ncc(C(=O)NO)cn4)cc3n2)cc1 [Compound 157, 2-(((2-(4-acetamidophenyl)-4-morpholinothieno[3,2-d]pyrimidin-6-yl)methyl)(methyl)amino)-N-hydroxypyrimidine-5-carboxamide] | < 100 nM | – | – | – | – | 10 to 100 nM | 10 to 100 nM | < 10 nM | 10 to 100 nM | – | 10 to 100 nM | 10 to 100 nM | 228 to 230 °C | – | – | – | – | 10 to 100 nM | 10 to 100 nM | 10 to 100 nM | IC50 [17]: 10 to 100 nM; IC50 [16, 21]: 10 to 100 nM
8 | CNc1ncc(-c2nc(N3CCOCC3)c3sc(CN(C)c4ncc(C(=O)NO)cn4)cc3n2)cn1 [Compound 116, N-hydroxy-2-(methyl((2-(2-(methylamino)pyrimidin-5-yl)-4-morpholinothieno[3,2-d]pyrimidin-6-yl)methyl)amino)pyrimidine-5-carboxamide] | < 100 nM | < 100 nM | < 100 nM | < 100 nM | < 100 nM | – | – | – | – | – | – | – | 183 to 187 °C | 10 to 100 nM | 10 to 100 nM | 10 to 100 nM | 10 to 100 nM | – | – | – | IC50 ([9]; Breast, Method B): 10 to 100 nM; IC50 ([10]; Breast, Method B): 10 to 100 nM; IC50 ([13]; Breast, Method B): 10 to 100 nM; IC50 ([11]; Method B): 10 to 100 nM; IC50 ([12]; SK-MEL-28, Method B): < 10 nM; IC50 ([16]; Method B): < 10 nM
9 | Cc1ncc(-c2nc(N3CCOCC3)c3sc(CN(C)c4ncc(C(=O)NO)cn4)cc3n2)cn1 [Compound 120, N-hydroxy-2-(methyl((2-(2-methylpyrimidin-5-yl)-4-morpholinothieno[3,2-d]pyrimidin-6-yl)methyl)amino)pyrimidine-5-carboxamide] | < 100 nM | – | – | – | – | – | – | – | – | – | – | – | 184 to 186 °C | 10 to 100 nM | 10 to 100 nM | 10 to 100 nM | 10 to 100 nM | – | – | – | IC50 ([9]; Breast, Method B): 10 to 100 nM; IC50 ([10]; Breast, Method B): 10 to 100 nM; IC50 ([13]; Breast, Method B): 10 to 100 nM; IC50 ([11]; Method B): 10 to 100 nM; IC50 ([12]; SK-MEL-28, Method B): 10 to 100 nM; IC50 ([16]; Method B): < 10 nM

— patent publication US8906909B2 (Curis, Inc., priority 2009, dated 2014)
